# Values quoted from earlier work in patent US20040157836A1, “Sulfonamides having antiangiogenic and anticancer activity” (priority 2002, published 2004).
# Biological target: type 2-methionine aminopeptidase (MetAP-2) (Homo sapiens, UniProt P50579)
# Conditions: reported in Proc. Natl. Acad. Sci. USA 94: 6099-6103 (1997) and Chemistry and Biology, 4(6): 461-471 (1997)
# Sequence of type 2-methionine aminopeptidase (MetAP-2) (P50579 whole entry, species assumed): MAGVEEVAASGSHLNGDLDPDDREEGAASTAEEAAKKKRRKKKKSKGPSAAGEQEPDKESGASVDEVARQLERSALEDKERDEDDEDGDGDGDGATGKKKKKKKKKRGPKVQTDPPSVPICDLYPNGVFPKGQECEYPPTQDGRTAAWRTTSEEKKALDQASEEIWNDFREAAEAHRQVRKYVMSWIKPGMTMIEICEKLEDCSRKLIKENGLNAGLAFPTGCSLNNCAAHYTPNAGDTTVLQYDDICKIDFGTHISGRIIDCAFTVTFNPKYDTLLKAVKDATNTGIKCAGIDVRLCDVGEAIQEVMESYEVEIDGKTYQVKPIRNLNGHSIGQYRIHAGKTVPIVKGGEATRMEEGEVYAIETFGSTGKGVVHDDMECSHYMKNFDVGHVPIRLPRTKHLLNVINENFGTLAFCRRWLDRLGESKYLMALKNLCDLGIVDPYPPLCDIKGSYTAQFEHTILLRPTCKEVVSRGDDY
smiles,measurement,value
CO[C@@H]1[C@H](OC(=O)NC(=O)CCl)CC[C@]2(CO2)[C@H]1[C@@]1(C)O[C@@H]1CC=C(C)C [AGM-1470],bind to type 2-methionine aminopeptidase (MetAP-2),bind
